According to patent US6686393B1, “Pharmaceutical compositions having antiviral activity against human cytomegalovirus” (Murdock International Corporation, priority 1990, dated 2004):
Values joined by “and” are separate entries in the source; they are usually repeats but may differ in a detail not shown here. Equal entries are not always repeated. “Also recorded” adds a separate entry of the source. Where two headings read alike, the source gives them in different places.

Legend:
[1] = tested on: human cytomegalovirus (HCMV), strain AD-169; experiment: Antiviral test (plaque reduction) versus HCMV, strain AD-169, in MRC-5 cells; assay type: cell-based
[2] = tested on: HCMV, strain C8805-37 (DHPG-resistant); experiment: microbe, parasite or virus in culture; assay type: cell-based, human cytomegalovirus; conditions: for inhibition at 10 µg/mL: Human betaherpesvirus 5, MRC5, 96 h, read-out: Percent Inhibition Compared to Controls; for inhibition at 0.01 µg/mL / inhibition at 0.032 µg/mL / inhibition at 0.1 µg/mL / inhibition at 0.32 µg/mL / inhibition at 1 µg/mL / inhibition at 3.2 µg/mL: Human betaherpesvirus 5, MRC5, read-out: Percent Inhibition Compared to Controls
[3] = Human betaherpesvirus 5, AD169, MRC5, read-out: % Reduction
[4] = Table 9 summary, two values = two experiments

Compound	inhibition at 0.01 µg/mL [1, 3] [%]	inhibition at 0.032 µg/mL [1, 3] [%]	inhibition at 0.1 µg/mL [1, 3] [%]	inhibition at 0.32 µg/mL [1, 3] [%]	inhibition at 3.2 µg/mL [1, 3] [%]	CD50 (MRC-5 cells; human) [µg/mL]	Activity against HCMV [1]	inhibition at 10 µg/mL [2] [%]	inhibition at 0.01 µg/mL [2] [%]	inhibition at 0.032 µg/mL [2] [%]	inhibition at 0.1 µg/mL [2] [%]	inhibition at 0.32 µg/mL [2] [%]	inhibition at 1 µg/mL [2] [%]	inhibition at 3.2 µg/mL [2] [%]	CD50 (MRC-5 cells; [4])	also measured
O=C1c2ccccc2C(=O)c2c(O)c(O)cc(O)c21 [Purpurin, purpurin]	0	0	0	0	0	5.6										inhibition at 1 µg/mL [1, 3]: 0%
O=C1c2ccc(O)c(O)c2C(=O)c2c(O)ccc(O)c21 [Quinalizarin, quinalizarin]					100		definitely active; also recorded: show activity	98	21	44	20	0	42	88		CD50 (MRC-5 cells; human, 4 days): >10 µg/mL
O=C1c2ccccc2C(=O)c2c(O)ccc(O)c21 [Quinizarin, 1,4-dihydroxyanthraquinone]	0	0	0	0		>10	Slight activity; also recorded: show activity; also recorded: activity but at lower levels									
O=C(O)c1cc(O)c2c(c1)C(=O)c1cccc(O)c1C2=O [Rhein, rhein]					100			100	0	0	38	0	49	100	3.4 µg/mL and 2.9 µg/mL	CD50 (MRC-5 cells; Example 3, cells exposed 4 days): >10 µg/mL; CD50 (MRC-5 cells; Example 5): 3.4 µg/mL; CD50 (MRC-5 cells; Example 7): 2.9 µg/mL; CD50 (MRC-5 cells; Table 10 summary, DHPG resistant HCMV test): >10 µg/mL
protohypericin							show activity; also recorded: good biological activity								5.6 µg/mL	Activity in initial screening against HCMV in vitro [1]: active; Percent Inhibition of Plaque Numbers (Compared to Virus Controls) [1]: 0%; CD50 (MRC-5 cells; Example 2, cells exposed 6 or more days): 5.6 µg/mL
